{"source": "patent US7060824B2", "about": "“Pyrrolotriazolopyrimidinone derivatives” (Almirall Prodesfarma, S.A., priority 2000, dated 2006)"}
{"target": "T1, cyclic GMP specific phosphodiesterase (PDE 5) (Homo sapiens, UniProt O76074)", "T1 construct": "was isolated from human platelet lysates by ion exchange chromatography using a Mono-Q column; from tissue; host or cells: human platelets (lysate, Mono-Q ion exchange fraction)", "test": "PDE 5 inhibition, enzyme isolated from human platelet lysates, [3H]-cyclic GMP substrate", "format": "biochemical", "conditions": "enzyme from human platelet lysates (Mono-Q); 0.25 mM [3H]-cyclic GMP as substrate; read-out: IC50 PDE5", "experimental": "The cyclic GMP specific phosphodiesterase (PEE 5) was isolated from human platelet lysates by ion exchange chromatography using a Mono-Q column. The enzyme activity was determined using 0.25 mM [3H]-cyclic GMP as substrate. The purification of the enzyme and the assessment of the PDE 5 inhibitory activity of our compounds were performed essentially as described by Gristwood et al., Br. J. Pharmacol. 1992, 105, 985–991.", "units": {"IC50": "nM"}}
{"compound": "CCCn1c(=O)n2cnnc2c2[nH]c(-c3cc(S(=O)(=O)N4CCCN(C)CC4)ccc3OCC)c(Cl)c21", "note": "[Example 11, 7-Chloro-8-[2-ethoxy-5-(4-methyl-[1,4]diazepane-1-sulfonyl)phenyl]-6-propyl-6,9-dihydro-5H-pyrrolo[2,3-e][1,2,4]triazolo[4,3-c]pyrimidine-5-one]", "IC50": 0.099}
{"compound": "CCCn1c(=O)n2cnnc2c2[nH]c(-c3cc(S(=O)(=O)N4CCN(CCOCC)CC4)ccc3OCC)c(Cl)c21", "note": "[Example 24, 7-Chloro-8-{2-ethoxy-5-[4-(2-ethoxyethyl)piperazine-1-sulfonyl]phenyl}-6-propyl-6,9-dihydro-5H-pyrrolo[2,3-e][1,2,4]triazolo[4,3-c]pyrimidine-5-one]", "IC50": 0.042}
{"compound": "CCCOc1ccc(S(=O)(=O)N2CCN(CCCO)CC2)cc1-c1[nH]c2c(c1Cl)n(CCC)c(=O)n1cnnc21", "note": "[Example 34, 7-Chloro-8-{5-[4-(3-hydroxypropyl)piperazine-1-sulfonyl)-2-propoxyphenyl]-6-propyl-6,9-dihydro-5H-pyrrolo[2,3-e][1,2,4]triazolo[4,3-c]pyrimidine-5-one]", "IC50": 0.22}
{"compound": "CCCOc1ccc(S(=O)(=O)NC2CC(C)(C)NC(C)(C)C2)cc1-c1[nH]c2c(c1Cl)n(CCC)c(=O)n1cnnc21", "note": "[Example 41, 3-(7-Chloro-5-oxo-6-propyl-6,9-dihydro-5H-pyrrolo[2,3-e][1,2,4]triazolo[4,3-c]pyrimidin-8-yl)-4-propoxy-N-(2,2,6,6-tetramethylpiperidin-4-yl)benzenesulfonamide]", "IC50": 0.17}
{"compound": "C=CCN1CCN(S(=O)(=O)c2ccc(OCCC)c(-c3[nH]c4c(c3Cl)n(CCC)c(=O)n3cnnc43)c2)CC1", "note": "[Example 45, 8-[5-(4-Allylpiperazine-1-sulfonyl)-2-propoxyphenyl]-7-chloro-6-propyl-6,9-dihydro-5H-pyrrolo[2,3-e][1,2,4]triazolo[4,3-c]pyrimidine-5-one]", "IC50": 0.21}
{"compound": "CCCOc1ccc(S(=O)(=O)NCCO)cc1-c1[nH]c2c(c1Cl)n(CCC)c(=O)n1cnnc21", "note": "[Example 50, 3-(7-Chloro-5-oxo-6-propyl-6,9-dihydro-5H-pyrrolo[2,3-e][1,2,4]triazolo[4,3-c]pyrimidin-8-yl)-N-(2-hydroxyethyl)-4-propoxybenzenesulfonamide]", "IC50": 0.15}
{"compound": "CCCOc1ccc(S(=O)(=O)N2CCN(C)CC2)cc1-c1[nH]c2c(c1Br)n(CCC)c(=O)n1cnnc21", "note": "[Example 58, 7-Bromo-8-[5-(4-methylpiperazine-1-sulfonyl)-2-propoxyphenyl]-6-propyl-6,9-dihydro-5H-pyrrolo[2,3-e][1,2,4]triazolo[4,3-c]pyrimidine-5-one]", "IC50": 0.3}
{"compound": "CCCOc1ccc(S(=O)(=O)N2CCCN(CCO)CC2)cc1-c1[nH]c2c(c1Br)n(CCC)c(=O)n1cnnc21", "note": "[Example 71, 7-Bromo-8-(5-[4-(2-Hydroxyethyl)-[1,4]diazepane-1-sulfonyl]-2-propoxyphenyl}-6-propyl-6,9-dihydro-5H-pyrrolo[2,3-e][1,2,4]triazolo[4,3-c]pyrimidine-5-one]", "IC50": 0.12}
{"compound": "CCCOc1ccc(S(=O)(=O)N2CCN(CCO)CC2)cc1-c1[nH]c2c(c1Br)n(CCC)c(=O)n1cnnc21", "note": "[Example 73, 7-Bromo-8-{5-[4-(2-hydroxyethyl)piperazine-1-sulfonyl]-2-propoxyphenyl}-6-propyl-6,9-dihydro-5H-pyrrolo[2,3-e][1,2,4]triazolo[4,3-c]pyrimidine-5-one]", "IC50": 0.33}
{"compound": "CCCOc1ccc(S(=O)(=O)N2CCNCC2)cc1-c1[nH]c2c(c1Br)n(CCC)c(=O)n1cnnc21", "note": "[Example 74, 7-Bromo-8-[5-(piperazine-1-sulfonyl)-2-propoxyphenyl]-6-propyl-6,9-dihydro-5H-pyrrolo[2,3-e][1,2,4]triazolo[4,3-c]pyrimidine-5-one]", "IC50": 0.25}
{"compound": "CCCn1c(=O)n2cnnc2c2[nH]c(-c3cc(S(=O)(=O)N4CCN5CCC[C@H]5C4)ccc3OCC)c(Cl)c21", "note": "[Example 75, 7-Chloro-8-[2-ethoxy-5-((S)-hexahydropyrrolo[1,2-a]pyrazine-2-sulfonyl)phenyl]-6-propyl-6,9-dihydro-5H-pyrrolo[2,3-e][1,2,4]triazolo[4,3-c]pyrimidine-5-one]", "IC50": 0.19}
{"compound": "CCCn1c(=O)n2cnnc2c2[nH]c(-c3cc(S(=O)(=O)N4C[C@@H]5C[C@H]4CN5C)ccc3OCC)c(Cl)c21", "note": "[Example 79, 7-Chloro-8-[2-ethoxy-5-((1S, 4S)-5-methyl-2,5-diazabicyclo[2.2.1]heptane-2-sulfonyl)phenyl]-6-propyl-6,9-dihydro-5H-pyrrolo[2,3-e][1,2,4]triazolo[4,3-c]pyrimidine-5-one]", "IC50": 0.19}
